Data reported in PubChem BioAssay AID1963964 (Molecular Pharmacology Branch, DTP, NCI, 2024).

System: 997726-040-R-J2-PDC tumor spheroids, viability
Assay: Anticancer human tumor 997726-040-R-J2-PDC patient-derived squamous cell lung carcinoma cell line growth inhibition [PI3K]
Settings: spheroids with HUVEC and MSC; for IC50: curve of first compound; for viability, T/C: stronger effect = lower value
How it was run: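 Agents were dosed from a top concentration near clinical Cmax (otherwise 10 microM) in half-log decrements, alone or combined with PI3K inhibitors. The spheroids contain tumor cells plus endothelial (HUVEC) and MSC stroma; viability is measured.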

[1] = second compound 0.00316 µM, first compound 0.0316 µM
[2] = second compound 0.00316 µM, first compound 0.1 µM
[3] = second compound 0.01 µM, first compound 0.0316 µM
[4] = second compound 0.01 µM, first compound 0.1 µM
[5] = second compound 0.0316 µM, first compound 0.0316 µM
[6] = second compound 0.0316 µM, first compound 0.1 µM
[7] = second compound 0.1 µM, first compound 0.0316 µM
[8] = second compound 0.1 µM, first compound 0.1 µM
[9] = second compound 0.316 µM, first compound 0.0316 µM
[10] = second compound 0.316 µM, first compound 0.1 µM
[11] = second compound 1 µM, first compound 0.0316 µM
[12] = second compound 1 µM, first compound 0.1 µM
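Further: spheroids exposed to compounds for seven days before readout.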

Work on CC(C)NCC(C(=O)N1CCN(c2ncnc3c2C(C)CC3O)CC1)c1ccc(Cl)cc1 (centres undefined) + COc1c(OCCCN2CCOCC2)ccc2c3n(c(=NC(=O)c4cnc(N)nc4)nc12)CCN3 yielded an IC50 (second compound 0.00316 µM) of 0.19 µM, an IC50 (second compound 0.01 µM) of 0.0798 µM and an IC50 (second compound 0.0316 µM) of under 0.0316 µM. For the same molecule, the IC50 (second compound 0.1 µM) was under 0.0316 µM, the IC50 (second compound 0.316 µM) was under 0.0316 µM and the IC50 (second compound 1 µM) was under 0.0316 µM. For the same molecule, the viability, T/C [1] was 67.1%, the viability, T/C [2] was 55.3% and the viability, T/C (second compound 0.00316 µM, first compound 0.316 µM) was 46%. For the same molecule, the viability, T/C (second compound 0.00316 µM, first compound 1 µM) was 29.1%, the viability, T/C (second compound 0.00316 µM, first compound 3.16 µM) was 15.7% and the viability, T/C (second compound 0.00316 µM, first compound 10 µM) was 9.1%. For the same molecule, the viability, T/C [3] was 51.6%, the viability, T/C [4] was 49.6% and the viability, T/C (second compound 0.01 µM, first compound 0.316 µM) was 42.8%. The viability, T/C (second compound 0.01 µM, first compound 1 µM) was 27%, the viability, T/C (second compound 0.01 µM, first compound 3.16 µM) was 16.8% and the viability, T/C (second compound 0.01 µM, first compound 10 µM) was 9.46%. For the same molecule, the viability, T/C [5] was 36.4%, the viability, T/C [6] was 33.1% and the viability, T/C (second compound 0.0316 µM, first compound 0.316 µM) was 27%. For the same molecule, the viability, T/C (second compound 0.0316 µM, first compound 1 µM) was 22.3%, the viability, T/C (second compound 0.0316 µM, first compound 3.16 µM) was 13.3% and the viability, T/C (second compound 0.0316 µM, first compound 10 µM) was 7.3%. It also gave a viability, T/C [7] of 19.4%, a viability, T/C [8] of 17.6% and a viability, T/C (second compound 0.1 µM, first compound 0.316 µM) of 18.9%. The viability, T/C (second compound 0.1 µM, first compound 1 µM) was 14.4%, the viability, T/C (second compound 0.1 µM, first compound 3.16 µM) was 8.93% and the viability, T/C (second compound 0.1 µM, first compound 10 µM) was 5.81%. For the same molecule, the viability, T/C [9] was 6.3%, the viability, T/C [10] was 5.44% and the viability, T/C (second compound 0.316 µM, first compound 0.316 µM) was 4.27%. The viability, T/C (second compound 0.316 µM, first compound 1 µM) was 3.76%, the viability, T/C (second compound 0.316 µM, first compound 3.16 µM) was 3.51% and the viability, T/C (second compound 0.316 µM, first compound 10 µM) was 2.65%. For the same molecule, the viability, T/C [11] was 1.14%, the viability, T/C [12] was 1.32% and the viability, T/C (second compound 1 µM, first compound 0.316 µM) was 1.04%. The viability, T/C (second compound 1 µM, first compound 1 µM) was 1.33%, the viability, T/C (second compound 1 µM, first compound 3.16 µM) was 2.38% and the viability, T/C (second compound 1 µM, first compound 10 µM) was 1.22%.
Cn1ncnc1[C@H]1c2n[nH]c(=O)c3cc(F)cc(c23)N[C@@H]1c1ccc(F)cc1 + COc1c(OCCCN2CCOCC2)ccc2c3n(c(=NC(=O)c4cnc(N)nc4)nc12)CCN3 showed an IC50 (second compound 0.00316 µM) of over 0.1 µM, an IC50 (second compound 0.01 µM) of over 0.1 µM and an IC50 (second compound 0.0316 µM) of under 0.000316 µM. It also gave an IC50 (second compound 0.1 µM) of under 0.000316 µM, an IC50 (second compound 0.316 µM) of under 0.000316 µM and an IC50 (second compound 1 µM) of under 0.000316 µM. It also gave a viability, T/C (second compound 0.00316 µM, first compound 0.000316 µM) of 76.4%, a viability, T/C (second compound 0.00316 µM, first compound 0.001 µM) of 77% and a viability, T/C (second compound 0.00316 µM, first compound 0.00316 µM) of 75.6%. It also gave a viability, T/C (second compound 0.00316 µM, first compound 0.01 µM) of 82.9%, a viability, T/C [1] of 77.6% and a viability, T/C [2] of 70.5%. For the same molecule, the viability, T/C (second compound 0.01 µM, first compound 0.000316 µM) was 52%, the viability, T/C (second compound 0.01 µM, first compound 0.001 µM) was 56.6% and the viability, T/C (second compound 0.01 µM, first compound 0.00316 µM) was 61.1%. It also gave a viability, T/C (second compound 0.01 µM, first compound 0.01 µM) of 54.8%, a viability, T/C [3] of 64.2% and a viability, T/C [4] of 58.1%. For the same molecule, the viability, T/C (second compound 0.0316 µM, first compound 0.000316 µM) was 33.7%, the viability, T/C (second compound 0.0316 µM, first compound 0.001 µM) was 35.3% and the viability, T/C (second compound 0.0316 µM, first compound 0.00316 µM) was 33.7%. It also gave a viability, T/C (second compound 0.0316 µM, first compound 0.01 µM) of 37.1%, a viability, T/C [5] of 34.1% and a viability, T/C [6] of 36.5%. It also gave a viability, T/C (second compound 0.1 µM, first compound 0.000316 µM) of 25.1%, a viability, T/C (second compound 0.1 µM, first compound 0.001 µM) of 22.2% and a viability, T/C (second compound 0.1 µM, first compound 0.00316 µM) of 26.5%. It also gave a viability, T/C (second compound 0.1 µM, first compound 0.01 µM) of 23.1%, a viability, T/C [7] of 23.2% and a viability, T/C [8] of 22.6%. It also gave a viability, T/C (second compound 0.316 µM, first compound 0.000316 µM) of 5.23%, a viability, T/C (second compound 0.316 µM, first compound 0.001 µM) of 5.9% and a viability, T/C (second compound 0.316 µM, first compound 0.00316 µM) of 5.66%. For the same molecule, the viability, T/C (second compound 0.316 µM, first compound 0.01 µM) was 5.44%, the viability, T/C [9] was 5.95% and the viability, T/C [10] was 5.09%. It also gave a viability, T/C (second compound 1 µM, first compound 0.000316 µM) of 1.25%, a viability, T/C (second compound 1 µM, first compound 0.001 µM) of 1.22% and a viability, T/C (second compound 1 µM, first compound 0.00316 µM) of 1.38%. The viability, T/C (second compound 1 µM, first compound 0.01 µM) was 1.16%, the viability, T/C [11] was 1.33% and the viability, T/C [12] was 1.04%.
